Like-named read-outs stand apart in the source and are kept apart here.
What was measured:
[1] = tested on: mouse tumor cell line 53T; assay: Evaluation of in vitro anticancer activity (Cell titer blue, cell death induction rate); type: cell-based; parameters: key: (CTB of negative control − CTB treated)/CTB of negative control; conditions: 24 hours, CTB
Protocol: First, the mouse tumor cell line 53T was seeded at 2×10^4/well on 96 well plates. Then, on the following day, each of compounds #09 and #13 dissolved in DMSO was added at a final concentration of 1, 5, 10, 20, or 50 μM. In addition, a negative control to which only DMSO was added was prepared. Subsequently, the cells were cultured at 37° C. under 10% CO2 for 24 hours. Then, by using Cell titer blue (CTB) (manufactured by Promega) according to the attached protocol, the amount of the fluorescence of each well of the cells 10 minutes after the addition of the CTB reagent was measured as a CTB measurement value of the cells brought into contact with compound #09 or #13. On the basis of such measurement values, the cell death induction rate of each of compounds #09 and #13 was calculated according to the following formula. Cell death induction rate=(CTB measurement value of negative control−CTB measurement value of cells to which compound was added)/CTB measurement value of negative control

[2] = tested on: p53-deficient cancer cells (53T); assay: Alternative autophagy-inducing activity in tumor cell line (Lamp2 aggregation, fluorescence and electron microscope); type: cell-based, mouse; conditions: 20 μM, six hours, FIGS. 3 to 6
Protocol: In the same manner as in the above-described <Evaluation of Alternative Autophagy-Inducing Activity> using the Lamp1-GFP/ATG5-KO MEFs, each of the compounds #09 and #13 was added at a final concentration of 20 μM to a culture liquid of the tumor cell line (also referred to as “53T”) established from the tumor developed spontaneously in the p53 deficient C57/B6J mouse. […] Note that, in this evaluation, Lamp2 was used instead of Lamp1. FIGS. 3 to 6 show the obtained results.

[3] = tested on: MEFs immortalized with SV40T antigen; conditions: 24 hours, CTB
[4] = tested on: tumor cell line 53T implanted in wild-type C57/B6J mice; assay: In vivo anticancer activity, tumor volume in cancer-bearing mice implanted with 53T; parameters: species or system mouse
Protocol: A tumor cell line (also referred to as “53T”) established from a tumor developed spontaneously in a p53 deficient C57/B6J mouse was implanted at 4 sites in the ventral skin of each of wild-type C57/B6J mice at 3×10^5 cells per site. From the following day, the compounds were administered to the mice every other day five times in total. The concentration of each compound was 0.4 μmol/(50 μl DMSO+100 μl PBS)/mouse/administration. In addition, a negative control group to which only the same amount of DMSO was administered was prepared. Then, 21 days (3 weeks) after the implantation, the tumor diameters of the mice were measured, and the tumor volumes were calculated, and compared with that of the control group.
The 53T was implanted at 4 sites in the ventral skin of each of wild-type C57/B6J mice at 3×10^5 cells per site. From the following day, 0 (DMSO alone), 5, 10, or 20 μM of each of compounds #09 and #13 was administered to six mice every other day five times in total. Then, 21 days (3 weeks) after the implantation, the tumor diameters of the mice were measured, and the tumor volumes were calculated. FIGS. 9 and 11 show the obtained results. Note that, in FIGS. 9 and 11, each point indicates the average volume of the tumors at the four sites in a mouse.
In addition, in the same manner as described above, the 53T was implanted in mice, and, from the following day, each of compound #09 at a concentration of 10 μM and compound #13 at a concentration of 5 μM was administered to four cancer-bearing mice every other day five times in total. Then, 21 days (3 weeks) after the implantation, the tumor diameters of the mice were measured, and the tumor volumes were calculated. In addition, a negative control to which DMSO was administered was also prepared, and the tumor volume was calculated in the same manner. In addition, these experiments were conducted three times independently of each other. FIGS. 10 and 12 show the obtained results. Note that in FIGS. 10 and 12, each point indicates the average volume of the tumors at the four sites in a mouse.

[5] = tested on: primary cultured fibroblasts (normal cells); assay: Activity to induce cell death specific to cancer cells: normal cells (CTB survival rate); type: cell-based; conditions: 20 μM, FIGS. 7 and 8
Protocol: CTB measurement values were obtained in the same manner as in the above-described <Evaluation of In Vitro Anticancer Activity> by adding each of compounds #09 and #13 at a final concentration of 20 μM to culture liquids of primary cultured fibroblasts (normal cells) and fibroblasts (cancer cells) immortalized with SV40. On the basis of the obtained CTB measurement values, the cell survival rate was calculated over time. Note that the cell survival rate was defined as 1-cell death induction rate. FIGS. 7 and 8 show the obtained results.

[6] = tested on: fibroblasts (cancer cells) immortalized with SV40; assay: Activity to induce cell death specific to cancer cells: cancer cells (CTB survival rate); type: cell-based; conditions: 20 μM, FIGS. 7 and 8
[7] = tested on: MEFs immortalized with SV40T antigen; assay: cells; conditions: Mus musculus, 24 h, read-out: induced cell death of the MEFs immortalized with SV40T antigen
Lamp1-GFP/ATG5-KO MEFs = assay: Evaluation of activity to induce alternative autophagy (fluorescent bright spots due to aggregation of Lamp1-GFP); type: cell-based, mouse
Protocol: First, by using a retrovirus, a gene for expression of a Lamp1-GFP fusion protein (also referred to as “Lamp1-GFP”) was introduced into ATG5-deficient mouse embryonic fibroblasts (also referred to as “ATG5-KO MEFs”). Then, a cell with high expression of Lamp1-GFP was cloned and prepared as Lamp1-GFP/ATG5-KO MEFs.
The ATG5-KO MEFs were prepared by introducing a gene for expression of SV40T antigen into MEFs established from an ATG5-deficient C57/B6J mouse at a fetal age of 14.5 days by an electroporation method using an Nucleofector system (manufactured by amaxa) for immortalization. In addition, the retrovirus was prepared by introducing an MSCV-Lamp1-GFP (zeocin resistant) vector into plat E cells, which were retrovirus packaging cells.
To the Lamp1-GFP/ATG5-KO MEFs seeded at 1×10^4/96 wells on the preceding day, each of the test compounds was added at a final concentration of 50 μM, and the Lamp1-GFP/ATG5-KO MEFs were cultured at 37° C. under 10% CO2 for 5 hours.
Then, for observation, Hoechst 33342 (manufactured by invitrogen) was added at a final concentration of 1 ng/ml to each culture liquid, followed by incubation for 5 minutes. Then, the culture liquid was replaced with 100 μl of HBSS. Subsequently, five visual fields per well were photographed at random with IN CELL ANALYZER 1000 (manufactured by GE Healthcare).
Then, the thus obtained novel benzothiophene compounds (TMD-459 and TMD-460) were evaluated for the ability to induce alternative autophagy by the same method as that described in Example 1. Note that, in Example 10, each of the compounds was added to culture liquids at final concentrations of 10, 20, 30, 40, and 50 μM. In addition, compound #9 was also added as a reference example to culture liquids at the above-described concentrations. Then, 5 hours after the addition of each of these compounds, five visual fields per each well were photographed at random with IN CELL ANALYZER 1000, and the presence or absence of fluorescent bright spots due to the aggregation of Lamp1-GFP was visually determined.

[8] = tested on: 53T implanted in wild-type C57/B6J mice; assay: Survival rate of cancer-bearing mice; type: in vivo, mouse; conditions: 10 μM every other day 5 times; compared with etoposide at 10 μM, FIGS. 13 to 15

## CCOC(=O)c1c(NC(C)=O)sc2c(OCCN(CC)CC)c(Br)ccc12 [Compound #09, Ethyl 2-Acetylamino-6-bromo-7-[2-(N,N-diethylamino)ethyloxy]benzo[b]thiophene-3-carboxylate]
[1]; 1 μM
  Cell death induction rate: 0
[1]; 5 μM
  Cell death induction rate: 0.07741
[1]; 10 μM
  Cell death induction rate: 0.1725
[1]; 20 μM
  Cell death induction rate: 0.6305
[1]; 50 μM
  Cell death induction rate: 0.9456
[2]
  aggregation of Lamp2 and occurrence of autophagy: aggregation of the lysosomal protein Lamp2 and occurrence of autophagy were observed
[3]; 10 μM
  Cell death induction rate: 0.7426
[3]; 20 μM
  Cell death induction rate: 0.887
[3]; 30 μM
  Cell death induction rate: 0.89
[3]; 40 μM
  Cell death induction rate: 0.8913
[3]; 50 μM
  Cell death induction rate: 0.8848
[4]; 0, 5, 10, or 20 μM
  dose dependence of in vivo anticancer activity (FIG. 9): dose-dependent activity
[4]; 0.4 μmol/mouse/administration, every other day five times, 21 days after implantation
  in vivo anticancer activity (tumor volume vs control group, FIG. 2): selected as compounds having in vivo anticancer activity
[4]; 5, 10, or 20 μM every other day five times, 21 days after implantation
  in vivo anticancer activity (tumor volume, FIGS. 9 to 12): exhibited in vivo anticancer activity
[4]; Example 9
  anticancer activity (FIG. 17, tumor volumes in cancer-bearing mice): had anticancer activity
[5]
  cell death of normal cells (cell survival rate over time): hardly induced cell death of the normal cells
[6]
  cell death-inducing activity on cancer cells (cell survival rate over time): exhibited remarkable cell death-inducing activity on the cancer cells
[7]
  mortality at 20 µM: ≥ 80%
Lamp1-GFP/ATG5-KO MEFs; Example 9, same method as Example 1
  alternative autophagy-inducing activity (FIG. 16): having alternative autophagy-inducing activity
Lamp1-GFP/ATG5-KO MEFs; concentrations of 10 μM or higher (10 to 50 μM), 5 hours
  aggregation of Lamp1-GFP, visually determined: aggregation of the Lamp1-GFP was observed in all the cells
[8]
  improvement effect on the survival rate of the cancer-bearing mice: higher improvement effect on the survival rate of the cancer-bearing mice than etoposide

From US10954222B2, “Benzothiophene compound, alternative autophagy-inducing agent and anticancer agent including the compound as active ingredient, and method for screening for compound having anticancer activity” (National University Corporation Tokyo Medical and Dental …, priority 2012, dated 2021)
